Earlier results, collected in US20040034086A1, “Combination of an allosteric inhibitor of matrix metalloproteinase-13 with celecoxib or valdecoxib” (priority 2002, published 2004).

**Q.** What does the source list for `Cc1onc(-c2ccccc2)c1-c1ccc(S(N)(=O)=O)cc1` [valdecoxib, 4-(5-methyl-3-phenyl-4-isoxazolyl)-benzenesulfonamide]?
**A.** Tolerability in clinical studies (combined analysis of various clinical studies): well tolerated; Overall upper gastrointestinal safety profile (ulcers, perforations, obstructions and GI bleeds) (compared with conventional NSAIDs such as ibuprofen, diclofenac and naproxen): significantly better than the conventional NSAIDs studied
